Test results: article PMC4966941 (PLoS ONE, 2016)
Where a name gives a salt, the structure may show the parent alone.

Legend:
[1] = test system: human corneal endothelial cells; design: method as in Yoeruek et al. [40]; details: ref Yoeruek et al. [40]; cited from earlier work
[2] = test system: Staphylococcus aureus Xen 36; test: In-vivo infection prevention study: X-ray and micro-CT signs of tibial osteomyelitis
Method: Bioluminescent strain Staphylococcus aureus Xen 36 (Caliper LifeSciences, Alameda, CA) was used to develop bone infection. The strain was stored in a glycerol (20% v/v) and Brain Heart Infusion (BHI) suspension at -80°C until required. Bacteria were subcultured onto an LB plate (Luria-Bertani, Miller broth mixed with 1.2% (w/v) Technical Agar (Difco, Sparks, MD.)), at 37°C overnight. Five colonies were then transferred to 3 mL LB broth and grown in shaker incubator (200 rpm), at 37°C for 2.5 h. Two milliliters of the bacterial suspension was transferred to 100 mL LB broth and grown for a further 4 h, until the cells reached exponential growth. Bacterial suspension was transferred into 50 mL centrifuge tubes and cells centrifuged at ~3,000 rpm for 30 min. Supernatants were discarded and pellets were re-suspended in 15 mL Phosphate Buffered Saline (PBS). Cells were then mixed by vortexing and the centrifugation process was repeated. This cell washing process was repeated three times. The final washed and pelleted cells were re-suspended in a total of 10 mL PBS, and mixed by vortexing. The cell suspension was then ten-fold serially diluted. The concentration of the cell suspension was then determined using the spread plate technique and spreading 100 μL of the various dilutions onto LB plates, in duplicate. Plates were incubated at 37°C overnight before counting colony forming units (CFU). […]

[3] = test system: osteoblast (MC3T3-E1) cells; design: method as in Antoci et al. [39]; details: ref Antoci et al. [39]; cited from earlier work

Structure (SMILES): CN[C@H](CC(C)C)C(=O)N[C@H]1C(=O)N[C@@H](CC(N)=O)C(=O)N[C@H]2C(=O)N[C@H]3C(=O)N[C@H](C(=O)N[C@H](C(=O)O)c4cc(O)cc(O)c4-c4cc3ccc4O)[C@H](O)c3ccc(c(Cl)c3)Oc3cc2cc(c3O[C@@H]2O[C@H](CO)[C@@H](O)[C@H](O)[C@H]2O[C@H]2C[C@](C)(N)[C@H](O)[C@H](C)O2)Oc2ccc(cc2Cl)[C@H]1O [vancomycin, vancomycin hydrochloride]
- Vancomycin concentrations leading to near total destruction [1]: over 10 mg/mL
- Vancomycin concentrations leading to significant reductions in viability [1]: higher than 5 mg/mL
- Vancomycin treated rats displaying radiographic signs of osteomyelitis ([2]; rat tibia inoculated with S. aureus Xen 36 (Log10 5.5 CFU/5 μL) with simultaneous single 25 mg/Kg intramedullary dose, 14 days, n = 9): zero
- Micro CT evaluation of treated rats ([2]; rat tibia inoculated with S. aureus Xen 36, single 25 mg/Kg intramedullary dose, compared to untreated controls): absent of any signs of osteomyelitis
- Doses that severely decreased cellular proliferation [3]: greater than 2 mg/mL
